Test results reported in patent US20110230472A1, “RING-FUSED AZOLE DERIVATIVE HAVING PI3K-INHIBITING ACTIVITY” (Shionogi & Co., Ltd., priority 2008, published 2011).

Columns and labels:
PI-3 kinase γ [1] = target: T1, PI-3 kinase γ (Homo sapiens, UniProt P48736); experiment: PI3Kγ inhibitory activity, PI3-kinase HTRF assay (inhibition ratio); type: biochemical; conditions: 0.5 h; for inhibition at 50 µM: compound at 50 μM
Outline: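 PI3Kγ preincubated 10 min with compound and PIP2 substrate (MgCl2, DTT), then ATP added for 30 min at room temperature. PIP3 detected by HTRF (665/620 nm ratio) after 18 h. Inhibition ratio at 50 or 10 μmol/L, normalised to no-compound and no-enzyme controls.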

Solubility test = type: physicochemical; conditions: kinetic from dmso stock; artificial intestinal juice pH 6.8, 1% DMSO, 25° C. for 16 hours
Procedure: The solubility of a compound was determined under a condition in which 1% DMSO was added. 10 mmol/L compound solution was prepared using DMSO, and then 6 μL of the compound solution was added to 594 μL of artificial intestinal juice in pH 6.8 (to 250 mL of 0.2 mol/L potassium dihydrogen phosphate reagent solution was added 118 mL of 0.2 mol/L NaOH reagent solution and water to provide a final volume of 1000 mL). After standing at 25° C. for 16 hours, the mixed solution was filtered with suction. The filtrate was diluted twice with methanol/water (1/1), and then a concentration in the filtration was measured with HPLC or LC/MS/MS by the absolute calibration method.

[2] = system: AKT phosphorylation in human monocyte-like cell line THP-1; experiment: AKT phosphorylation inhibitory activity in MCP-1-stimulated THP-1 cells (ELISA); type: cell-based; conditions: 1 μmol/L solution of each compound, MCP-1 stimulation, read-out: AKT phosphorylation inhibition ratio
Procedure: (1) The AKT phosphorylation inhibitory activity of a compound was evaluated according to the following procedure. (2) Human monocyte-like cell line THP-1 was washed with RPMI-1640 media, incubated in the presence of 5% CO2 at 37° C. for 3 hours, washed with Hank's balanced salt solution (HBSS), adjusted to a cell concentration of 6.6×10^6/mL, and then used in an experiment. (3) 30 μL of the cell suspension and 60 μL of each compound solution containing 0.2% DMSO/HBSS were mixed and then preincubated at 37° C. for 5 minutes. 30 μL of HBSS containing 4 μg/mL of MCP-1 was added thereto and then incubated for 30 seconds at 37° C. (4) 30 μl of a cell lysate (20 mmol/L Tris-HCl (pH 7.5), 150 mmol/L NaCl, 1 mmol/L Na2EDTA, 1 mmol/L EGTA, 1% Triton, 2.5 mmol/L sodium pyrophosphate, 1 mmol/L β-glycerophosphate, 1 mmol/L Na3VO4, 1 μg/ml leupeptin, 50 nmol/L APMSF) was added thereto to lyse cells. (5) The amount of AKT phosphorylation in the cell lysate was measured by ELISA method. (6) Anti-phospho-Akt (Ser473) antibodies (clone 193H12, derived from a rabbit) were immobilized onto the solid phase of a micro well plate. 100 μL of the prepared cell lysate was added to the micro well plate, incubated for 2 hours at 37° C., and then washed four times with Phosphate Buffered Saline containing 0.05% Tween-20. (7) An anti-AKT1 antibody (clone 2H10, derived from a mouse) was added thereto, incubated for 1 hour at 37° C., washed similarly, and then reacted with an HRP-labeled anti-mouse IgG antibody. (8) After incubating at 37° C. for 30 minutes and then washing similarly, 100 μL of TMB (3,3′,5,5″-tetramethylbenzidine) was added thereto, followed by reacting at room temperature for 30 minutes. (9) 100 μL of 1 mol/L sulfuric acid was added to quench the color reaction and then the absorbance at 450 nm was measured. (10) A series of diluted cell lysates of a positive control (a sample in the absence of a compound) were used to prepare a calibration curve, the amount of AKT phosphorylation in a sample in the absence of MCP-1 was defined as 0% activity to calculate an inhibition ratio. The measurement was performed for a 1 μmol/L solution of each compound.

Metabolic stability test = type: in vitro ADME; conditions: human liver microsome 0.5 mg protein/mL, 1 mmol/L NADPH, 37° C.
Procedure: After a subject compound was reacted for a certain time using a pooled human liver microsome commercially available, a reacted sample and an unreacted sample are compared to calculate a survival ratio, and then the degree of metabolism in the liver was evaluated.
0.2 mL of a buffer solution (50 mmol/L of Tris-HCl in pH 7.4, 150 mmol/L of potassium chloride, and 10 mmol/L of magnesium chloride) containing a human liver microsome of 0.5 mg protein/mL was reacted in the presence of 1 mmol/L NADPH at 37° C. for 0 or 30 minutes (oxidative reaction). After reacting, 50 μL of the reaction solution was added to 100 μL of a solution of methanol/acetonitrile (1/1 (v/v)), mixed, and then centrifuged at 3000 rpm for 15 minutes. The test compound in the supernatant was quantitated with LC/MS/MS. The amount of the compound at a reaction time of 0 minute was defined as 100% and, based on that, the percentage of the test compound remained after reacting for 30 minutes was calculated.

PI-3 kinase γ [3] = target: T1, PI-3 kinase γ; experiment: PI3Kγ inhibitory activity (Ki value), HTRF; type: biochemical; conditions: Ki=IC50/(1+10 μM ATP/Km)
Procedure: The PI3Kγ inhibitory activity (Ki value) of a compound was evaluated according to the following procedure:
5 μL of a compound solution containing 10% DMSO and 200 μmol/L of a compound was changed to 5 μL of a compound solution containing 10% DMSO and either 200, 64, 20, 6.4, 2, 0.64, or 0.20 μmol/L of the compound (optionally, this is diluted to a lower concentration). Using a method similar to the method for measuring PI3Kγ inhibitory activity, inhibition ratios were measured in the presence of the compound at 50, 16, 5, 1.6, 0.5, 0.16, and 0.05 μmol/L (optionally, a lower concentration). Then an IC50 value was calculated by a logistic approximation method or the linear regression method using two concentrations that across 50% inhibition. Separately, the ATP concentration in the reaction solution (40 μmol/L ATP, 10 mmol/L MgCl2, 5 mmol/L DTT) at the time of the start of a reaction in the absence of the compound was changed to 80, 40, 20, 10, 5, 2.5, 1.25, or 0.625 μmol/L. Then, HTRF ratios were measured by a similar method. The value obtained by subtracting the HTRF ratio at each ATP concentration from the HTRF ratio in the absence of PI-3 kinase γ was defined as the value obtained by multiplying reaction rate (v) at each ATP concentration with a constant. The Michaelis-Menten constant Km was then calculated by the Lineweaver-Burk plot method. The Ki value of a compound was calculated by the following formula.
Ki=IC50 value/(1+10 μM (test ATP concentration)/Km (μM))
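For percentage of the test compound remained after reacting for 30 minutes in this document: 100% equals the compound amount at 0 min reaction.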

T1 sequence (P48736 whole entry): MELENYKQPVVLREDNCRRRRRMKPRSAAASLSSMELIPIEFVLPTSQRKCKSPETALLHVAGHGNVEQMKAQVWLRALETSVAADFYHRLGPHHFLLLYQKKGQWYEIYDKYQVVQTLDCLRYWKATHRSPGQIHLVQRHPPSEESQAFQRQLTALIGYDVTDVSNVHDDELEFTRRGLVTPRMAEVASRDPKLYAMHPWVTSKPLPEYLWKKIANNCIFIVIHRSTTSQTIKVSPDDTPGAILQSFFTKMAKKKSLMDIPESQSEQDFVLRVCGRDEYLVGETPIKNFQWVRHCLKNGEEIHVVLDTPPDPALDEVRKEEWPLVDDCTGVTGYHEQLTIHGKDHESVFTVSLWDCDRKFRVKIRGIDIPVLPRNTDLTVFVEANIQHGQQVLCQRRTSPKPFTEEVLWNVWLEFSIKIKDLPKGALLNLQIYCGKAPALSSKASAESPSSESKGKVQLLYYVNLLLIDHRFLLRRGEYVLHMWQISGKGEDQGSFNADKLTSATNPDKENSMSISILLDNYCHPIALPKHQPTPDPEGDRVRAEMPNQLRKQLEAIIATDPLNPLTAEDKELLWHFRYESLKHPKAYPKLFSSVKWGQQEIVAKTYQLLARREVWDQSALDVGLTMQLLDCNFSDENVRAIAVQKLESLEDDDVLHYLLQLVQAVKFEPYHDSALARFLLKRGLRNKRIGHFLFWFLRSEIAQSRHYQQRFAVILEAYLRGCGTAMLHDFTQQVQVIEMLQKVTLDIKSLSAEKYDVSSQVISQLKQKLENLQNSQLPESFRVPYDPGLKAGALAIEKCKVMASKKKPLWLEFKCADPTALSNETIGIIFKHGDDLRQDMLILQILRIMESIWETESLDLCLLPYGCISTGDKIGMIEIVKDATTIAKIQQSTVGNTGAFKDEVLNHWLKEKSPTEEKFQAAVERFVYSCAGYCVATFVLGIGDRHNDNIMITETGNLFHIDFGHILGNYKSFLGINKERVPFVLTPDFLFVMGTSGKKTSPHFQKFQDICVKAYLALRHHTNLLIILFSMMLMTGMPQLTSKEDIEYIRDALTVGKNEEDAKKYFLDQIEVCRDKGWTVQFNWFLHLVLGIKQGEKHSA

SMILES	inhibition at 50 µM (PI-3 kinase γ [1]; PI3Kγ) [%]	solubility at 16 h (Solubility test) [µM]	percentage of the test compound remained after reacting for 30 minutes (Metabolic stability test) [%]	Ki (PI-3 kinase γ [3]) [nM]	inhibition at 10 µM (PI-3 kinase γ [1]; PI3Kγ, compound at 10 μM) [%]	inhibition at 10 µM (PI-3 kinase γ [1]; compound at 10 μmol/L) [%]	inhibition [2] [%]
CNC(=O)Nc1cc2n(n1)CCN2c1ccc2ncccc2c1 [Compound I-177]	≥ 95	> 50					> 99.5
CNC(=O)Nc1cc2n(n1)CCN2c1ccc2cnccc2c1 [Compound I-190]	≥ 95		90.5				> 99.5
CC(=O)Nc1cc2n(n1)CCN2c1cccc(Cl)c1 [Compound I-198]	94	> 50					97.3
CC(=O)Nc1cc2n(n1)CCN2c1ccc2cnccc2c1 [Compound I-284]				40	≥ 95		> 99.5
CC(=O)Nc1cc2n(n1)CCN2c1ccc2c(c1)CCN(C)C2=O [Compound I-287]		> 50	94.9		≥ 95		> 99.5
CC(=O)Nc1cc2n(n1)CCN2c1ccc2c(c1)CCNC2=O [Compound I-292]				43		≥ 95	
CN1CCc2cc(N3CCn4nc(NC(=O)c5cccs5)cc43)ccc2C1=O [Compound I-331]						84	93
CN1CCc2cc(N3CCn4nc(NC(=O)c5ccsc5)cc43)ccc2C1=O [Compound I-332]			87.2			≥ 95	96
CN1CCc2cc(N3CCn4nc(NC(=O)c5cncs5)cc43)ccc2C1=O [Compound I-341]		> 50				≥ 95	97.8
CN1CCc2cc(N3CCn4nc(NC(=O)c5cnco5)cc43)ccc2C1=O [Compound I-348]		> 50	94.5			≥ 95	> 99.5
CN1CCc2cc(N3CCn4nc(NC(=O)c5cnc(N)s5)cc43)ccc2C1=O [Compound I-380]				32		≥ 95	
COC(=O)Nc1cc[nH]c1C(=O)Nc1cc2n(n1)CCN2c1ccc2c(c1)CCN(C)C2=O [Compound I-398]				49		≥ 95	
CN1CCc2cc(N3CCn4nc(NC(=O)c5ccc(C(=O)NCC(=O)O)s5)cc43)ccc2C1=O [Compound I-415]				34		≥ 95	

Second part, led by results:

inhibition at 50 µM (PI-3 kinase γ [1]; PI3Kγ) [%]	solubility at 16 h (Solubility test) [µM]	percentage of the test compound remained after reacting for 30 minutes (Metabolic stability test) [%]	Ki (PI-3 kinase γ [3]) [nM]	inhibition at 10 µM (PI-3 kinase γ [1]; PI3Kγ, compound at 10 μM) [%]	inhibition at 10 µM (PI-3 kinase γ [1]; compound at 10 μmol/L) [%]	SMILES	inhibition [2] [%]
≥ 95			49			CCOC(=O)CNC(=O)Nc1nc2c(s1)CN(c1cc(OC)nc(OC)n1)CC2 [Compound I-202]	> 99.5
≥ 95		98.9				COc1cc(N2CCc3nc(NC(C)=O)sc3C2)nc(OC)n1 [Compound I-214]	> 99.5
			42	≥ 95		COc1cc(N2CCc3nc(NC(=O)NCCC(=O)NC(C)(C)C)sc3C2)nc(OC)n1 [Compound I-265]	> 99.5
			36	≥ 95		COC(=O)[C@H](CC(=O)OC(C)(C)C)NC(=O)Nc1nc2c(s1)CN(c1cc(OC)nc(OC)n1)CC2 [Compound I-277]	
		87.3	45		94	COc1cc(N2CCc3nc(NC(=O)Nc4ccon4)sc3C2)nc(OC)n1 [Compound I-303]	
		92.2			≥ 95	COc1cc(N2CCc3nc(NC(=O)NCCC(=O)N4CCCC4)sc3C2)nc(OC)n1 [Compound I-308]	98.4
	> 50	93.1			≥ 95	COc1cc(N2CCc3nc(NC(=O)NCCC(=O)NC(C)C)sc3C2)nc(OC)n1 [Compound I-309]	92
			43		≥ 95	COc1cc(N2CCc3nc(NC(=O)NCCC(=O)N(C)C(C)C)sc3C2)nc(OC)n1 [Compound I-310]	> 99.5
	> 50		45		≥ 95	COc1cc(N2CCc3nc(NC(=O)NCCC(=O)N4CCCC4(C)C)sc3C2)nc(OC)n1 [Compound I-318]	> 99.5
			23		≥ 95	CN1CCc2cc(N3CCn4nc(NC(=O)c5cnc(NC(=O)OC(C)(C)C)s5)cc43)ccc2C1=O [Compound I-375]	
	> 50				≥ 95	CNC(=O)Nc1nc2c(s1)CN(c1cncc(OC)n1)CC2 [Compound I-378]	> 99.5
